Assay results published in PubChem BioAssay AID1919017 (Molecular Pharmacology Branch, DTP, NCI, 2023).

Tested on: SW1271 complex spheroids with HUVEC/MSC, growth, % test/control
Test: Anticancer human tumor SW1271 cell line growth inhibition [AhR];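 note: spheroids exposed to agents for 7 days before readout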
Conditions: for IC50: curve of first compound; for viability, T/C: stronger effect = lower value
In short: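 Complex tumor spheroids co-cultured with HUVEC and human MSC stroma; AhR antagonists tested in combination with standard-of-care and investigational agents. Top concentration at or near clinical Cmax (else 10 microM), half-log dilutions; growth expressed as percent test/control.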

[1] = second compound 0.1 µM, first compound 0.0316 µM
[2] = second compound 0.1 µM, first compound 0.1 µM
[3] = second compound 0.1 µM, first compound 0.316 µM
[4] = second compound 0.1 µM, first compound 1 µM
[5] = second compound 0.316 µM, first compound 0.0316 µM
[6] = second compound 0.316 µM, first compound 0.1 µM
[7] = second compound 0.316 µM, first compound 0.316 µM
[8] = second compound 0.316 µM, first compound 1 µM
[9] = second compound 1 µM, first compound 0.0316 µM
[10] = second compound 1 µM, first compound 0.1 µM
[11] = second compound 1 µM, first compound 0.316 µM
[12] = second compound 1 µM, first compound 1 µM
[13] = second compound 3.16 µM, first compound 0.0316 µM
[14] = second compound 3.16 µM, first compound 0.1 µM
[15] = second compound 3.16 µM, first compound 0.316 µM
[16] = second compound 3.16 µM, first compound 1 µM
[17] = second compound 10 µM, first compound 0.0316 µM
[18] = second compound 10 µM, first compound 0.1 µM
[19] = second compound 10 µM, first compound 0.316 µM
[20] = second compound 10 µM, first compound 1 µM

CC1(C)CCC(CN2CCN(c3ccc(C(=O)NS(=O)(=O)c4ccc(NCC5CCOCC5)c([N+](=O)[O-])c4)c(Oc4cnc5[nH]ccc5c4)c3)CC2)=C(c2ccc(Cl)cc2)C1 + Cc1cncc(-c2nc(NCCc3c[nH]c4ccccc34)c3ncn(C(C)C)c3n2)c1
IC50 (second compound 0.1 µM): > 10 µM
IC50 (second compound 0.316 µM): > 10 µM
IC50 (second compound 1 µM): > 10 µM
IC50 (second compound 3.16 µM): > 10 µM
IC50 (second compound 10 µM): < 0.0316 µM
viability, T/C [1]: 101%
viability, T/C [2]: 92.7%
viability, T/C [3]: 101%
viability, T/C [4]: 116%
viability, T/C (second compound 0.1 µM, first compound 3.16 µM): 131%
viability, T/C (second compound 0.1 µM, first compound 10 µM): 95.7%
viability, T/C [5]: 95%
viability, T/C [6]: 93.3%
viability, T/C [7]: 102%
viability, T/C [8]: 88.4%
viability, T/C (second compound 0.316 µM, first compound 3.16 µM): 101%
viability, T/C (second compound 0.316 µM, first compound 10 µM): 125%
viability, T/C [9]: 95.5%
viability, T/C [10]: 79.8%
viability, T/C [11]: 104%
viability, T/C [12]: 90.5%
viability, T/C (second compound 1 µM, first compound 3.16 µM): 111%
viability, T/C (second compound 1 µM, first compound 10 µM): 102%
viability, T/C [13]: 120%
viability, T/C [14]: 98.5%
viability, T/C [15]: 102%
viability, T/C [16]: 94.7%
viability, T/C (second compound 3.16 µM, first compound 3.16 µM): 115%
viability, T/C (second compound 3.16 µM, first compound 10 µM): 110%
viability, T/C [17]: 36.9%
viability, T/C [18]: 46%
viability, T/C [19]: 49.5%
viability, T/C [20]: 33.6%
viability, T/C (second compound 10 µM, first compound 3.16 µM): 48.9%
viability, T/C (second compound 10 µM, first compound 10 µM): 44.9%

Nc1ncn(C2CC(O)C(CO)O2)c(=O)n1 (stereo not given) + CC(CO)NC(=O)c1cc(-c2ccc(Cl)cc2)nn(-c2cnn(C)c2)c1=O
IC50 (second compound 0.1 µM): > 1 µM
IC50 (second compound 0.316 µM): > 1 µM
IC50 (second compound 1 µM): > 1 µM
IC50 (second compound 3.16 µM): > 1 µM
IC50 (second compound 10 µM): > 1 µM
viability, T/C (second compound 0.1 µM, first compound 0.00316 µM): 73.8%
viability, T/C (second compound 0.1 µM, first compound 0.01 µM): 85.4%
viability, T/C [1]: 80%
viability, T/C [2]: 75.9%
viability, T/C [3]: 93%
viability, T/C [4]: 66.8%
viability, T/C (second compound 0.316 µM, first compound 0.00316 µM): 78.2%
viability, T/C (second compound 0.316 µM, first compound 0.01 µM): 88%
viability, T/C [5]: 77.5%
viability, T/C [6]: 79.7%
viability, T/C [7]: 62.1%
viability, T/C [8]: 105%
viability, T/C (second compound 1 µM, first compound 0.00316 µM): 76%
viability, T/C (second compound 1 µM, first compound 0.01 µM): 79.7%
viability, T/C [9]: 81.6%
viability, T/C [10]: 75.1%
viability, T/C [11]: 75.8%
viability, T/C [12]: 76.1%
viability, T/C (second compound 3.16 µM, first compound 0.00316 µM): 60%
viability, T/C (second compound 3.16 µM, first compound 0.01 µM): 81%
viability, T/C [13]: 79.3%
viability, T/C [14]: 67.1%
viability, T/C [15]: 68.8%
viability, T/C [16]: 78%
viability, T/C (second compound 10 µM, first compound 0.00316 µM): 65.9%
viability, T/C (second compound 10 µM, first compound 0.01 µM): 66.5%
viability, T/C [17]: 67.5%
viability, T/C [18]: 67.2%
viability, T/C [19]: 59.1%
viability, T/C [20]: 54.6%

CCN(c1cc(-c2ccc(CN3CCOCC3)cc2)cc(C(=O)NCc2c(C)cc(C)[nH]c2=O)c1C)C1CCOCC1 + CC(CO)NC(=O)c1cc(-c2ccc(Cl)cc2)nn(-c2cnn(C)c2)c1=O
IC50 (second compound 0.1 µM): > 3 µM
IC50 (second compound 0.316 µM): > 3 µM
IC50 (second compound 1 µM): > 3 µM
IC50 (second compound 3.16 µM): > 3 µM
IC50 (second compound 10 µM): > 3 µM
viability, T/C (second compound 0.1 µM, first compound 0.00949 µM): 122%
viability, T/C (second compound 0.1 µM, first compound 0.03 µM): 117%
viability, T/C (second compound 0.1 µM, first compound 0.0949 µM): 106%
viability, T/C (second compound 0.1 µM, first compound 0.3 µM): 97.2%
viability, T/C (second compound 0.1 µM, first compound 0.949 µM): 102%
viability, T/C (second compound 0.1 µM, first compound 3 µM): 91.8%
viability, T/C (second compound 0.316 µM, first compound 0.00949 µM): 101%
viability, T/C (second compound 0.316 µM, first compound 0.03 µM): 108%
viability, T/C (second compound 0.316 µM, first compound 0.0949 µM): 120%
viability, T/C (second compound 0.316 µM, first compound 0.3 µM): 113%
viability, T/C (second compound 0.316 µM, first compound 0.949 µM): 110%
viability, T/C (second compound 0.316 µM, first compound 3 µM): 112%
viability, T/C (second compound 1 µM, first compound 0.00949 µM): 86.6%
viability, T/C (second compound 1 µM, first compound 0.03 µM): 105%
viability, T/C (second compound 1 µM, first compound 0.0949 µM): 119%
viability, T/C (second compound 1 µM, first compound 0.3 µM): 94.5%
viability, T/C (second compound 1 µM, first compound 0.949 µM): 105%
viability, T/C (second compound 1 µM, first compound 3 µM): 110%
viability, T/C (second compound 3.16 µM, first compound 0.00949 µM): 91.9%
viability, T/C (second compound 3.16 µM, first compound 0.03 µM): 88%
viability, T/C (second compound 3.16 µM, first compound 0.0949 µM): 103%
viability, T/C (second compound 3.16 µM, first compound 0.3 µM): 89.3%
viability, T/C (second compound 3.16 µM, first compound 0.949 µM): 106%
viability, T/C (second compound 3.16 µM, first compound 3 µM): 90.3%
viability, T/C (second compound 10 µM, first compound 0.00949 µM): 91.7%
viability, T/C (second compound 10 µM, first compound 0.03 µM): 94.5%
viability, T/C (second compound 10 µM, first compound 0.0949 µM): 81.3%
viability, T/C (second compound 10 µM, first compound 0.3 µM): 84.9%
viability, T/C (second compound 10 µM, first compound 0.949 µM): 74.1%
viability, T/C (second compound 10 µM, first compound 3 µM): 79.4%
